This note sets out measurements from patent US7855166B2, “Sulfonylamino(thio)carbonyl compounds” (Bayer Cropscience GmbH, priority 2005, dated 2010).

For assay [1], the system named is weed plants such as Sinapis alba, Echinochloa crus-galli, Lolium multiflorum, Chrysanthemum segetum, Setaria viridis, Abutilon theophrasti, Amaranthus …. Put plainly: Post-emergence effect on weeds (greenhouse pot test, visual scoring). The class given is in vivo. The following applies: applied post-emergence (three-leaf stage) at a rate of 0.3 kg or less of active substance per hectare; scored after about 3 to 4 weeks in comparison to untreated controls.

Assay [2] deals with weed plants such as Sinapis alba, Chrysanthemum segetum, Avena sativa, Stellaria media, Echinochloa crus-galli, Lolium multiflorum, Setaria viridis, Abutilon …. Put plainly: Pre-emergence effect on weeds (greenhouse pot test, visual scoring). The class given is in vivo. The following applies: applied pre-emergence at a rate of 0.3 kg or less of active substance per hectare; scored after 3 to 4 weeks in comparison to untreated controls.

Regarding `COc1nn(C(=O)NS(=O)(=O)c2c(I)cccc2OC(C)C(F)(F)F)c(=O)n1C1CC1` (centres unmarked) [Compound 1.529], the “herbicidal action against weed plants (effect scored visually)” value in assay [1] is “very good herbicidal action”. The “herbicidal action against weed plants (visual scoring of plant damage or emergence damage)” value in assay [2] is “very good herbidical action”.

For the compound `CCOc1nn(C(=O)NS(=O)(=O)c2c(I)cccc2OC(C)C(F)(F)F)c(=O)n1C1CC1` (centres unmarked) [Compound 1.532], the “herbicidal action against weed plants (effect scored visually)” value in assay [1] is listed as “very good herbicidal action”. The “herbicidal action against weed plants (visual scoring of plant damage or emergence damage)” value in assay [2] is recorded as “very good herbidical action”.

Regarding `CCCOc1nn(C(=O)NS(=O)(=O)c2c(I)cccc2OC(C)C(F)(F)F)c(=O)n1C1CC1` (centres unmarked) [Compound 1.535], in assay [1], the “herbicidal action against weed plants (effect scored visually)” value is “very good herbicidal action”. In addition, in assay [2], the “herbicidal action against weed plants (visual scoring of plant damage or emergence damage)” value is “very good herbidical action”.

As for `COc1nn(C(=O)NS(=O)(=O)c2c(I)cccc2OCC(F)(F)C(F)(F)F)c(=O)n1C` [Compound 1.544], the “herbicidal action against weed plants (effect scored visually)” value in assay [1] was “very good herbicidal action”. The “herbicidal action against weed plants (visual scoring of plant damage or emergence damage)” value in assay [2] is on record as “very good herbidical action”.

On to `CCCOc1nn(C(=O)NS(=O)(=O)c2c(I)cccc2OCC(F)(F)C(F)(F)F)c(=O)n1C` [Compound 1.549], for which the “herbicidal action against weed plants (effect scored visually)” value in assay [1] is on record as “very good herbicidal action”. The “herbicidal action against weed plants (visual scoring of plant damage or emergence damage)” value in assay [2] is “very good herbidical action”.

For `CC(C)Oc1nn(C(=O)NS(=O)(=O)c2c(I)cccc2OCC(F)(F)C(F)(F)F)c(=O)n1C` [Compound 1.550], the “herbicidal action against weed plants (effect scored visually)” value in assay [1] is “very good herbicidal action”. Besides, the “herbicidal action against weed plants (visual scoring of plant damage or emergence damage)” value in assay [2] is given as “very good herbidical action”.

As to `COc1nn(C(=O)NS(=O)(=O)c2c(I)cccc2OCC(F)(F)C(F)(F)F)c(=O)n1C1CC1` [Compound 1.552], in assay [1], the “herbicidal action against weed plants (effect scored visually)” value is listed as “very good herbicidal action”. For the same compound, in assay [2], the “herbicidal action against weed plants (visual scoring of plant damage or emergence damage)” value is “very good herbidical action”.

Take `CCOc1nn(C(=O)NS(=O)(=O)c2c(I)cccc2OCC(F)(F)C(F)(F)F)c(=O)n1C1CC1` [Compound 1.555]: the “herbicidal action against weed plants (effect scored visually)” value in assay [1] is listed as “very good herbicidal action”. In addition, the “herbicidal action against weed plants (visual scoring of plant damage or emergence damage)” value in assay [2] is recorded as “very good herbidical action”.

In the case of `CCCOc1nn(C(=O)NS(=O)(=O)c2c(I)cccc2OCC(F)(F)C(F)(F)F)c(=O)n1C1CC1` [Compound 1.558], the “herbicidal action against weed plants (effect scored visually)” value in assay [1] is given as “very good herbicidal action”. Moreover, in assay [2], the “herbicidal action against weed plants (visual scoring of plant damage or emergence damage)” value is listed as “very good herbidical action”.

Turning to `COc1nn(C(=O)NS(=O)(=O)c2c(I)cccc2SC)c(=O)n1C` [Compound 1.579], the “herbicidal action against weed plants (effect scored visually)” value in assay [1] is reported as “very good herbicidal action”. In addition, the “herbicidal action against weed plants (visual scoring of plant damage or emergence damage)” value in assay [2] is listed as “very good herbidical action”.

On to `CCCOc1nn(C(=O)NS(=O)(=O)c2c(I)cccc2SC)c(=O)n1C` [Compound 1.581], for which the “herbicidal action against weed plants (effect scored visually)” value in assay [1] was “very good herbicidal action”. The “herbicidal action against weed plants (visual scoring of plant damage or emergence damage)” value in assay [2] is listed as “very good herbidical action”.

Regarding `CSc1cccc(I)c1S(=O)(=O)NC(=O)n1nc(OC(C)C)n(C)c1=O` [Compound 1.582], in assay [1], the “herbicidal action against weed plants (effect scored visually)” value is on record as “very good herbicidal action”. Also, in assay [2], the “herbicidal action against weed plants (visual scoring of plant damage or emergence damage)” value is listed as “very good herbidical action”.

Consider `COc1nn(C(=O)NS(=O)(=O)c2c(I)cccc2SC)c(=O)n1C1CC1` [Compound 1.584], for which the “herbicidal action against weed plants (effect scored visually)” value in assay [1] is “very good herbicidal action”. Also, the “herbicidal action against weed plants (visual scoring of plant damage or emergence damage)” value in assay [2] was “very good herbidical action”.

With `CCOc1nn(C(=O)NS(=O)(=O)c2c(I)cccc2SC)c(=O)n1C1CC1` [Compound 1.585], the “herbicidal action against weed plants (effect scored visually)” value in assay [1] is “very good herbicidal action”. In assay [2], the “herbicidal action against weed plants (visual scoring of plant damage or emergence damage)” value is recorded as “very good herbidical action”.

With `CCCOc1nn(C(=O)NS(=O)(=O)c2c(I)cccc2SC)c(=O)n1C1CC1` [Compound 1.586], the “herbicidal action against weed plants (effect scored visually)” value in assay [1] is recorded as “very good herbicidal action”. The “herbicidal action against weed plants (visual scoring of plant damage or emergence damage)” value in assay [2] is listed as “very good herbidical action”.

As to `COc1nn(C(=O)NS(=O)(=O)c2c(I)cccc2OS(C)(=O)=O)c(=O)n1C` [Compound 1.711], the “herbicidal action against weed plants (effect scored visually)” value in assay [1] is recorded as “very good herbicidal action”. The “herbicidal action against weed plants (visual scoring of plant damage or emergence damage)” value in assay [2] is on record as “very good herbidical action”.

As to `CCOc1nn(C(=O)NS(=O)(=O)c2c(I)cccc2OS(C)(=O)=O)c(=O)n1C` [Compound 1.712], in assay [1], the “herbicidal action against weed plants (effect scored visually)” value is listed as “very good herbicidal action”. Moreover, in assay [2], the “herbicidal action against weed plants (visual scoring of plant damage or emergence damage)” value is recorded as “very good herbidical action”.

On to `CCCOc1nn(C(=O)NS(=O)(=O)c2c(I)cccc2OS(C)(=O)=O)c(=O)n1C` [Compound 1.713], for which the “herbicidal action against weed plants (effect scored visually)” value in assay [1] was “very good herbicidal action”. For the same compound, the “herbicidal action against weed plants (visual scoring of plant damage or emergence damage)” value in assay [2] is given as “very good herbidical action”.

On to `COc1nn(C(=O)NS(=O)(=O)c2c(I)cccc2OS(C)(=O)=O)c(=O)n1C1CC1` [Compound 1.716], for which the “herbicidal action against weed plants (effect scored visually)” value in assay [1] is recorded as “very good herbicidal action”. Also, in assay [2], the “herbicidal action against weed plants (visual scoring of plant damage or emergence damage)” value is given as “very good herbidical action”.

Consider `CCOc1nn(C(=O)NS(=O)(=O)c2c(I)cccc2OS(C)(=O)=O)c(=O)n1C1CC1` [Compound 1.717], for which, in assay [1], the “herbicidal action against weed plants (effect scored visually)” value is listed as “very good herbicidal action”. Moreover, in assay [2], the “herbicidal action against weed plants (visual scoring of plant damage or emergence damage)” value is listed as “very good herbidical action”.

For the compound `CCCOc1nn(C(=O)NS(=O)(=O)c2c(I)cccc2OS(C)(=O)=O)c(=O)n1C1CC1` [Compound 1.718], in assay [1], the “herbicidal action against weed plants (effect scored visually)” value is given as “very good herbicidal action”. For the same compound, the “herbicidal action against weed plants (visual scoring of plant damage or emergence damage)” value in assay [2] is given as “very good herbidical action”.

With `COc1nn(C(=O)NS(=O)(=O)c2c(I)cccc2OS(=O)(=O)N(C)C)c(=O)n1C` [Compound 1.749], the “herbicidal action against weed plants (effect scored visually)” value in assay [1] is on record as “very good herbicidal action”. The “herbicidal action against weed plants (visual scoring of plant damage or emergence damage)” value in assay [2] was “very good herbidical action”.

Regarding `CCCOc1nn(C(=O)NS(=O)(=O)c2c(I)cccc2OS(=O)(=O)N(C)C)c(=O)n1C` [Compound 1.751], in assay [1], the “herbicidal action against weed plants (effect scored visually)” value is on record as “very good herbicidal action”. The “herbicidal action against weed plants (visual scoring of plant damage or emergence damage)” value in assay [2] was “very good herbidical action”.

Consider `CC(C)Oc1nn(C(=O)NS(=O)(=O)c2c(I)cccc2OS(=O)(=O)N(C)C)c(=O)n1C` [Compound 1.752], for which, in assay [1], the “herbicidal action against weed plants (effect scored visually)” value is given as “very good herbicidal action”. In addition, the “herbicidal action against weed plants (visual scoring of plant damage or emergence damage)” value in assay [2] was “very good herbidical action”.

`COc1nn(C(=O)NS(=O)(=O)c2c(I)cccc2OS(=O)(=O)N(C)C)c(=O)n1C1CC1` [Compound 1.754]: the “herbicidal action against weed plants (effect scored visually)” value in assay [1] is listed as “very good herbicidal action”. Further, in assay [2], the “herbicidal action against weed plants (visual scoring of plant damage or emergence damage)” value was “very good herbidical action”.

For the compound `CCOc1nn(C(=O)NS(=O)(=O)c2c(I)cccc2OS(=O)(=O)N(C)C)c(=O)n1C1CC1` [Compound 1.755], in assay [1], the “herbicidal action against weed plants (effect scored visually)” value was “very good herbicidal action”. Moreover, the “herbicidal action against weed plants (visual scoring of plant damage or emergence damage)” value in assay [2] was “very good herbidical action”.

With `CCCOc1nn(C(=O)NS(=O)(=O)c2c(I)cccc2OS(=O)(=O)N(C)C)c(=O)n1C1CC1` [Compound 1.756], the “herbicidal action against weed plants (effect scored visually)” value in assay [1] is reported as “very good herbicidal action”. Besides, in assay [2], the “herbicidal action against weed plants (visual scoring of plant damage or emergence damage)” value is given as “very good herbidical action”.

In the case of `Cc1cccc(I)c1S(=O)(=O)NC(=O)n1nc(C2CC2)n(C2CC2)c1=O` [Compound 1.815], the “herbicidal action against weed plants (effect scored visually)” value in assay [1] is “very good herbicidal action”. Also, in assay [2], the “herbicidal action against weed plants (visual scoring of plant damage or emergence damage)” value is “very good herbidical action”.

With `COc1ccc(Cl)c(I)c1S(=O)(=O)NC(=O)n1nc(OC)n(C)c1=O` [Compound 1.816], the “herbicidal action against weed plants (effect scored visually)” value in assay [1] is recorded as “very good herbicidal action”. In addition, the “herbicidal action against weed plants (visual scoring of plant damage or emergence damage)” value in assay [2] is reported as “very good herbidical action”.

On to `CCOc1nn(C(=O)NS(=O)(=O)c2c(OC)ccc(Cl)c2I)c(=O)n1C` [Compound 1.817], for which the “herbicidal action against weed plants (effect scored visually)” value in assay [1] is “very good herbicidal action”. Moreover, the “herbicidal action against weed plants (visual scoring of plant damage or emergence damage)” value in assay [2] was “very good herbidical action”.

For the compound `CCCOc1nn(C(=O)NS(=O)(=O)c2c(OC)ccc(Cl)c2I)c(=O)n1C` [Compound 1.818], the “herbicidal action against weed plants (effect scored visually)” value in assay [1] is recorded as “very good herbicidal action”. Also, in assay [2], the “herbicidal action against weed plants (visual scoring of plant damage or emergence damage)” value is “very good herbidical action”.

For the compound `COc1ccc(Cl)c(I)c1S(=O)(=O)NC(=O)n1nc(OC(C)C)n(C)c1=O` [Compound 1.819], the “herbicidal action against weed plants (effect scored visually)” value in assay [1] is given as “very good herbicidal action”. Moreover, in assay [2], the “herbicidal action against weed plants (visual scoring of plant damage or emergence damage)” value is listed as “very good herbidical action”.

As to `COc1ccc(Cl)c(I)c1S(=O)(=O)NC(=O)n1nc(OC)n(C2CC2)c1=O` [Compound 1.820], the “herbicidal action against weed plants (effect scored visually)” value in assay [1] was “very good herbicidal action”. Also, the “herbicidal action against weed plants (visual scoring of plant damage or emergence damage)” value in assay [2] was “very good herbidical action”.

Consider `CCCOc1nn(C(=O)NS(=O)(=O)c2c(OC)ccc(Cl)c2I)c(=O)n1C1CC1` [Compound 1.822], for which, in assay [1], the “herbicidal action against weed plants (effect scored visually)” value is on record as “very good herbicidal action”. Also, the “herbicidal action against weed plants (visual scoring of plant damage or emergence damage)” value in assay [2] is recorded as “very good herbidical action”.
